Assay results published in patent US11453671B2, “Pyrazolopyrimidine inhibitors of JAK kinases and uses thereof” (Genentech, Inc., priority 2020, dated 2022).
Like-named read-outs stand apart in the source and are kept apart here.

Key:
[1] = target: Recombinant human JAK2 kinase domain protein (Residues 812-1132) (Homo sapiens, UniProt O60674); assay: JAK2 biochemical assay (microfluidic mobility shift, peptide phosphorylation); conditions: Enzyme JAK2 Ki (nM), 25 μM ATP, 0.2 nM total JAK2
Protocol: The in vitro biochemical assays quantify JAK-catalyzed phosphorylation of a synthetic peptide, as detected using a LabChip® EZ Reader II microfluidic mobility shift instrument (PerkinElmer; Waltham, Mass.). […] Y-1B is fluorescently labeled on the N-terminus with 5-FAM (5-carboxyfluorescein) and contains a single tyrosine residue (Y) that can be phosphorylated by JAK activity. The substrate peptide stock is prepared in DMSO at 5 mM.
In each titration experiment, test compound was tested in duplicate at each of the twelve concentrations. Blank reactions contained ATP, peptide, and DMSO, but no JAK or test compound, whereas uninhibited control reactions contained ATP, peptide, JAK, and DMSO, but no test compound.
Peptide plus ATP mixture (24 μL) was added to 1 μL of test compound in DMSO (or DMSO alone). The reactions were initiated by adding 25 μL of JAK enzyme to the inhibitor/peptide/ATP mixture before thoroughly mixing the resultant solution. Reactions were incubated at room temperature (22° C.-23° C.) in a final volume of 50 μL per well in 384-well plates.
In each reaction, the residual Y-1B substrate and the phospho-peptide product generated were separated using the EZ Reader II instrument. Electrophoretic separation of molecules of product from molecules of substrate was achieved using downstream and upstream voltages of −500 and −2600 V, respectively, at an operating pressure of −1.3 psi.
The extent (or percent) of conversion of substrate to product was calculated from the corresponding peak heights in the electropherogram using HTS Well Analyzer software, Version 5.2 (PerkinElmer), and the following equation (Equation 1): % conversion=[P÷(S+P)]×100 Equation 1 where S and P represent the peak heights of the substrate and product, respectively. After any baseline signal from blank wells containing no JAK was subtracted from the signal of all test wells, the % conversion data were converted to fractional activity as shown in Equation 2, where vi and vo are the % conversion in the presence and absence of test compound, respectively.

[2] = target: T1, recombinant human JAK1 kinase domain protein (Residues 854-1154) (Homo sapiens, UniProt P23458); assay: JAK1 biochemical assay (microfluidic mobility shift, peptide phosphorylation); conditions: 25 μM ATP, 1 nM total JAK1; read-out: Enzyme JAK1 Ki
T1 construct: human JAK1 kinase domain protein (Residues 854-1154); purchased Proteros Biostructures GmbH (Martinsried, Germany); host or cells: insect cells
T1 sequence (P23458 854-1154): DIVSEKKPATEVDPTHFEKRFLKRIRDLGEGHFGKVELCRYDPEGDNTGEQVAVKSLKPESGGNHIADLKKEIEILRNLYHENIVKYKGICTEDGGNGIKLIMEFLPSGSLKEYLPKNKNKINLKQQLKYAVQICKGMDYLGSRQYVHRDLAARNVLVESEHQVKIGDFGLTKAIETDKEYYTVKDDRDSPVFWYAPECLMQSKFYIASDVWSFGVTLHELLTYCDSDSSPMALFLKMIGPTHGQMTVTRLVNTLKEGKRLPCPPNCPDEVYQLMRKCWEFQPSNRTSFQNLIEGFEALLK
Text: JAK1 and JAK2 Biochemical Assays

[3] = test system: JAK1: IL-13-stimulated STAT6 phosphorylation in BEAS-2B cells; assay: P-STAT6 BEAS-2B+IL-13 Cell Assay; format: cell-based, human; conditions: IL-13 stimulation, read-out: Cellular JAK1 PSTAT6 BEAS2B + IL13 IC50
Protocol: P-STAT6 BEAS-2B+IL-13 Cell Assay
In order to study the effect of JAK1 inhibitors in a cell line that is relevant to the cell biology of human asthma, an IL-13-stimulated STAT6 phosphorylation assay in the human lung bronchial epithelial BEAS-2B cell line was developed.
BEAS-2B cells (ATCC® CRL-9609™) were grown in Bronchial Epithelial Growth Medium (BEGM) (Lonza Catalog No. CC-3170; Walkersville, Md.; or PromoCell Catalog No. C-21060; Heidelberg, Germany). Test compound stock solutions (0.5 mM in DMSO) were serially diluted 1:2 in DMSO to generate a 10-point concentration curve (at 500×test concentration), which was further diluted by a 50-fold dilution step in BEGM to generate a 10× concentration curve (in 2% DMSO). Cells were plated at 100,000 cells/well in 200 μL of BEGM in 96-well plates and incubated for 48 hours at 37° C. in a humidified incubator. Medium was aspirated from the cells and replaced with 70 μL of fresh BEGM. Diluted test compound (10 μL; or 2% DMSO in assay medium) was added to the cells, and the plates were incubated for 1 hour at 37° C. in a humidified incubator. Twenty μL of 250 ng/mL human recombinant IL-13 (Bio Techne Catalog No. 213-ILB) was then added to the cells and incubated for 15 minutes at 37° C. Medium was aspirated from the cells and 60 μL of ice-cold 1×cell lysis buffer (Cell Signaling Technologies; Catalog No. 9803S) containing 1 mM PMSF was added to the cells. Assay plates were incubated at −80° C. for at least 1 hour. P-STAT6 was measured by coating GAR plates (MSD; Catalog No. L45RA-1) with rabbit anti-human total STAT6 antibody (Cell Signaling Technologies; Catalog No. 9362S), incubating the cell lysates in the coated plates overnight at 4° C., and then detecting with mouse anti-phospho-STAT6 (Tyr641) Clone 16E12 antibody (Millipore; Catalog No. 05-590, custom labeled by MSD with SULFO-tag) using standard MSD plate processing, washing, and detection protocols. Plates were read on the MESO SECTOR S600. Data Analysis
Data analysis was performed by subtracting negative control values from all wells and determining percent of control using the positive control values; the IC50 was determined with a four-parameter logistic fit model as shown in Equation 4.

Recombinant human JAK2 kinase domain protein (Residues 812-1132), sequence (O60674 812-1132): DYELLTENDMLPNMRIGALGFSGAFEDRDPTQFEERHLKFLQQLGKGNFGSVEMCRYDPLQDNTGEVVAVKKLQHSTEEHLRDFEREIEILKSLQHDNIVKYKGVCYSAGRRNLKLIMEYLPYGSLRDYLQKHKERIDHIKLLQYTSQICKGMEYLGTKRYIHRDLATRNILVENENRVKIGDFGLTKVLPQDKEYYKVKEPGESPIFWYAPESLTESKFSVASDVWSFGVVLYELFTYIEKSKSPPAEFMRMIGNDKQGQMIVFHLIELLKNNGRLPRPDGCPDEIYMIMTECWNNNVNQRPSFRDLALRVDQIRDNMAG

Compound	Ki [1] [nM]	Ki [2] [nM]	IC50 [3] [nM]	IC50 ([3]; Homo sapiens, BEAS-2B) [nM]
CN1CCC(S(=O)(=O)c2ccc(OC(F)F)c(-c3nn(C)cc3NC(=O)c3cnn4cccnc34)c2)C1 (single isomer, unassigned) [Example 19, N-[3-[2-(difluoromethoxy)-5-(1-methylpyrrolidin-3-yl)sulfonyl-phenyl]-1-methyl-pyrazol-4-yl]pyrazolo[1,5-a]pyrimidine-3-carboxamide]	1.7	4	–	120
CC(C)OC(=O)n1cc(NC(=O)c2cnn3cccnc23)c(-c2cc(S(C)(=O)=O)ccc2OC(F)F)n1 [Example 34, isopropyl 3-[2-(difluoromethoxy)-5-methylsulfonyl-phenyl]-4-(pyrazolo[1,5-a]pyrimidine-3-carbonylamino)pyrazole-1-carboxylate]	0.29	0.31	–	21
Cn1cc(NC(=O)c2cnn3cccnc23)c(-c2cc(S(=O)(=O)C3CCNC3)ccc2OC(F)F)n1 (stereo not drawn) [Example 10, N-[3-[2-(difluoromethoxy)-5-pyrrolidin-3-ylsulfonyl-phenyl]-1-methyl-pyrazol-4-yl]pyrazolo[1,5-a]pyrimidine-3-carboxamide]	0.6	0.95	–	52
Cn1cc(NC(=O)c2cnn3cccnc23)c(-c2cc(S(=O)(=O)c3cnn(C4CN5CCC4CC5)c3)ccc2OC(F)F)n1 (stereo not drawn) [Example 55, N-[3-[2-(difluoromethoxy)-5-(1-quinuclidin-3-ylpyrazol-4-yl)sulfonyl-phenyl]-1-methyl-pyrazol-4-yl]pyrazolo[1,5-a]pyrimidine-3-carboxamide]	0.98	0.93	–	71
Cn1cc(NC(=O)c2cnn3cccnc23)c(-c2cc(S(=O)(=O)c3ccc(=O)[nH]c3)ccc2OC(F)F)n1 [Example 43, N-[3-[2-(difluoromethoxy)-5-[(6-oxo-1H-pyridin-3-yl)sulfonyl]phenyl]-1-methyl-pyrazol-4-yl]pyrazolo[1,5-a]pyrimidine-3-carboxamide]	0.27	0.5	–	≥ 1000
CN1C=Cc2cc(S(=O)(=O)c3ccc(OC(F)F)c(-c4nn(C)cc4NC(=O)c4cnn5cccnc45)c3)ccc2C1 [Example 64, N-[3-[2-(difluoromethoxy)-5-[(2-methyl-1H-isoquinolin-6-yl)sulfonyl]phenyl]-1-methyl-pyrazol-4-yl]pyrazolo[1,5-a]pyrimidine-3-carboxamide]	0.84	1.9	–	210

Continued, in another order:

Ki [1] [nM]	Ki [2] [nM]	Compound	IC50 [3] [nM]	IC50 ([3]; Homo sapiens, BEAS-2B) [nM]
0.23	0.4	CS(=O)(=O)c1ccc(OC(F)F)c(-c2nn(C3CCOC3=O)cc2NC(=O)c2cnn3cccnc23)c1 (single isomer, unassigned) [Example 33, N-[3-[2-(difluoromethoxy)-5-methylsulfonyl-phenyl]-1-(2-oxotetrahydrofuran-3-yl)pyrazol-4-yl]pyrazolo[1,5-a]pyrimidine-3-carboxamide]	99	–
0.18	0.55	Cn1cc(NC(=O)c2cnn3cccnc23)c(-c2cc(S(=O)(=O)c3c[nH]cn3)ccc2OC(F)F)n1 [Example 66, N-[3-[2-(difluoromethoxy)-5-(1H-imidazol-4-ylsulfonyl)phenyl]-1-methyl-pyrazol-4-yl]pyrazolo[1,5-a]pyrimidine-3-carboxamide]	–	380
0.33	0.31	Cn1cc(NC(=O)c2cnn3cccnc23)c(-c2cc(S(=O)(=O)c3cnn(CCN)c3)ccc2OC(F)F)n1 [Example 47, N-[3-[5-[1-(2-aminoethyl)pyrazol-4-yl]sulfonyl-2-(difluoromethoxy)phenyl]-1-methyl-pyrazol-4-yl]pyrazolo[1,5-a]pyrimidine-3-carboxamide]	–	210
0.4	0.43	Cn1cc(NC(=O)c2cnn3cccnc23)c(-c2cc(S(=O)(=O)c3cccc(CCN)c3)ccc2OC(F)F)n1 [Example 18, N-[3-[5-[3-(2-aminoethyl)phenyl]sulfonyl-2-(difluoromethoxy)phenyl]-1-methyl-pyrazol-4-yl]pyrazolo[1,5-a]pyrimidine-3-carboxamide]	–	290
